Results from ChEMBL document CHEMBL1201862, “PubChem BioAssay data set” (2004).
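The compound was tested at five concentrations on cells cultured in 96-well plates, with a 48-hour exposure period. GI50 is the concentration that inhibits growth by half.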 Calls of active or inactive are those of the source. Cut-off read from the data, not from the text of the source: active = GI50 up to about 1.1 µM and inactive = higher.

What was measured:
Assay in all cases: NCI-60 cell line screen, 48 h
[1] = test system: CAKI-1
[2] = test system: CCRF-CEM
[3] = test system: HCC 2998
[4] = test system: HCT-15
[5] = test system: HOP-62
[6] = test system: HT-29
[7] = test system: MCF7
[8] = test system: NCI-H23
[9] = test system: OVCAR-4
[10] = test system: OVCAR-5
[11] = test system: OVCAR-8
[12] = test system: SF-539
[13] = test system: SN12C
[14] = test system: SR
[15] = test system: SW-620
[16] = test system: UACC-62
[17] = test system: HL-60
[18] = test system: Malme-3M

| SMILES | GI50 [1] | GI50 [2] | GI50 [3] | GI50 [4] [µM] | GI50 [5] | GI50 [6] | GI50 [7] | GI50 [8] | GI50 [9] | GI50 [10] | GI50 [11] | GI50 [12] | GI50 [13] | GI50 [14] | GI50 [15] | GI50 [16] | GI50 [17] | GI50 [18] |
| --- | --- | --- | --- | --- | --- | --- | --- | --- | --- | --- | --- | --- | --- | --- | --- | --- | --- | --- |
| CCOC(=O)c1cn(-c2ccc([N+](=O)[O-])cc2)c(=S)n2c1nc1ccccc12 | 42.9 µM (inactive) | 9.84 µM (inactive) | 23.1 µM (inactive) | 35.4 | 63.2 µM (inactive) | 26.4 µM (inactive) | 33.2 µM (inactive) | 34.1 µM (inactive) | 21.6 µM (inactive) | > 100 µM (inactive) | 35.5 µM (inactive) | 32 µM (inactive) | 50.1 µM (inactive) | 39.5 µM (inactive) | 47 µM (inactive) | 31.8 µM (inactive) | – | – |
| O=c1ccc(=O)c2c1c1[nH]c3ccccc3c1c1c(=O)c3ccccc3c(=O)c21 | 6.71 µM (inactive) | 3.19 µM (inactive) | > 10 µM (inactive) | > 10 | > 10 µM (inactive) | > 10 µM (inactive) | – | > 10 µM (inactive) | > 10 µM (inactive) | > 10 µM (inactive) | > 10 µM (inactive) | > 10 µM (inactive) | > 10 µM (inactive) | > 10 µM (inactive) | 8.22 µM (inactive) | > 10 µM (inactive) | 3.85 µM (inactive) | > 10 µM (inactive) |
| CCOC(=O)C1C(c2ccco2)C2(C#N)C(=N)OC1(C)C2(C#N)C#N (configuration not stated) | > 100 µM (inactive) | > 100 µM (inactive) | > 100 µM (inactive) | 33.1 | – | > 100 µM (inactive) | > 100 µM (inactive) | > 100 µM (inactive) | – | > 100 µM (inactive) | > 100 µM (inactive) | > 100 µM (inactive) | > 100 µM (inactive) | – | > 100 µM (inactive) | > 100 µM (inactive) | > 10 µM (inactive) | > 100 µM (inactive) |
| CCn1c(CCCc2nc3c(=O)n(C)c(=O)n(C)c3[nH]2)nc2c1c(=O)n(C)c(=O)n2C | > 100 µM (inactive) | > 100 µM (inactive) | > 100 µM (inactive) | > 100 | > 100 µM (inactive) | > 100 µM (inactive) | > 100 µM (inactive) | > 100 µM (inactive) | > 100 µM (inactive) | > 100 µM (inactive) | > 100 µM (inactive) | 14.9 µM (inactive) | 46 µM (inactive) | – | > 100 µM (inactive) | > 100 µM (inactive) | 77.8 µM (inactive) | > 100 µM (inactive) |
| CC1=NN(c2cccc(Cl)c2)C2(SCC(=O)N2c2nc3ccccc3s2)/C1=C\c1ccc(N(C)C)cc1 (configuration not stated) | 85.9 µM (inactive) | 66.1 µM (inactive) | 88.7 µM (inactive) | 56.1 | 19.4 µM (inactive) | > 100 µM (inactive) | 38.7 µM (inactive) | 31.8 µM (inactive) | 93.5 µM (inactive) | > 100 µM (inactive) | 58.9 µM (inactive) | 52.2 µM (inactive) | – | 58.5 µM (inactive) | > 100 µM (inactive) | – | > 100 µM (inactive) | – |
| COc1cc(C2SC(=N)Nc3c2c(C)nn3C(=O)Cc2ccccc2)cc(OC)c1OC (configuration not stated) | > 100 µM (inactive) | > 100 µM (inactive) | > 100 µM (inactive) | > 100 | > 100 µM (inactive) | > 100 µM (inactive) | > 100 µM (inactive) | > 100 µM (inactive) | – | – | > 100 µM (inactive) | > 100 µM (inactive) | > 100 µM (inactive) | > 100 µM (inactive) | > 100 µM (inactive) | > 100 µM (inactive) | > 100 µM (inactive) | – |
| NS(=O)(=O)c1nnc(NSc2ccc([N+](=O)[O-])cc2)s1 | 92.3 µM (inactive) | – | > 100 µM (inactive) | > 100 | > 100 µM (inactive) | – | > 100 µM (inactive) | > 100 µM (inactive) | 48.9 µM (inactive) | > 100 µM (inactive) | > 100 µM (inactive) | – | > 100 µM (inactive) | 59.6 µM (inactive) | > 100 µM (inactive) | > 100 µM (inactive) | – | > 100 µM (inactive) |
| CC(C)(C)OC(=O)NCCNCCNc1ccccc1 | > 100 µM (inactive) | > 100 µM (inactive) | > 100 µM (inactive) | > 100 | > 100 µM (inactive) | > 100 µM (inactive) | > 100 µM (inactive) | > 100 µM (inactive) | > 100 µM (inactive) | > 100 µM (inactive) | > 100 µM (inactive) | > 100 µM (inactive) | > 100 µM (inactive) | > 100 µM (inactive) | > 100 µM (inactive) | > 100 µM (inactive) | – | > 100 µM (inactive) |
| O=C1Nc2ccccc2/C1=N/NC(=S)N1CCCCC1 | 0.904 µM (active) | – | 1.27 µM (inactive) | 0.19 | 0.3 µM (active) | 0.946 µM (active) | 1.5 µM (inactive) | 1.39 µM (inactive) | 1.53 µM (inactive) | 4.05 µM (inactive) | 0.317 µM (active) | 0.082 µM (active) | 2.17 µM (inactive) | 0.675 µM (active) | 0.681 µM (active) | 1.15 µM (inactive) | – | 0.234 µM (active) |
